According to US9387183B2, “Method of treating diabetes-related impaired wound healing” (KUWAIT UNIVERSITY, priority 2011, dated 2016):

How the values were obtained:
[1] = system: TGF-β1-Smad signaling pathway; test: TGF-β/Smad-dependent signaling in diabetic wounds; assay type: in vivo, rat; details: wounds from treated diabetic rats, day 7; for TGF-βRII expression: FIG. 3D; for phospho-Smad2: FIG. 3E; for Smad7 levels: FIG. 3F
Method: Samples of the total cellular and nuclear extracts were subjected to protein determinations using the Bicinchoninic Acid Protein Assay Kit (Pierce). For western blotting, an equal volume of 2×SDS sample buffer was added, and the samples were denatured by boiling for 5 minutes. Proteins were applied to SDS-polyacrylamide gel electrophoresis (SDS-PAGE) and transferred to an Immobilon polyvinylidene difluoride membrane (BioRad). The membranes were blocked with tris buffered saline containing 0.05% Tween 20 and 5% skim milk, and then treated with a number of primary antibodies, including Smad2/p-Smad2 (Cell Signaling), Smad7 (Imgenex), and β3-integrin (Santa Cruz). Protein bands were visualized by chemiluminescence (Pierce), and band intensity was determined using Bio-Rad densitometer. Unless otherwise specified, β-actin was used to standardize the quantity of sample protein for all Western blotting analyses.

[2] = Global physiological characteristics of diabetic rats (weights, plasma and wound fluid hormones, oxidative stress); assay type: in vivo, rat; details: for Plasma F2 Isoprostanes: index of oxidative stress
Method: All animal procedures were performed in accordance with the NIH Guidance for the Care and Use of Laboratory Animals. The current study used the mildly hyperglycemic, non-obese Goto-Kakizaki (GK) spontaneously diabetic rats, produced by selective inbreeding of glucose-intolerant Wistar rats as a genetic model for type 2 diabetes. Weight-matched female Wistar rats (Kuwait University breeding colony) served as controls. All animals were maintained under standard conditions with 12 hours on/off light cycle, commercial diet, and water ad libitum. Rats destined for various experimental manipulations, including wounding, insulin sensitivity, and drug treatment, were initially matched with regard to body weight (e.g., 230 to 250 g), plasma levels of glucose, free fatty acids and insulin. These indices are commonly used to reflect the severity of the diabetic state.
Cycling control rats in proestrus were used as a reference group. Similarly, the diabetic rats were also treated with PEG-sTNF-RI, a soluble long-lasting form of TNF-RI that neutralizes TNF-α action. […] All of the treatment regimens used with the diabetic rats were given for at least three weeks before wound initiation, and this form of treatment continued during the course of wound healing.
Animals were sacrificed at 3 and 7 days post-wounding. An area that included the complete epithelial margins was excised, and the wounds were bisected and processed so that the mid-point of the wound was sectioned and compared between groups. The resulting specimens were either fixed in 4% paraformaldehyde in phosphate-sucrose buffer and analyzed histologically, or flash frozen in liquid nitrogen and stored at −80° C. prior to biochemical analysis, or embedded in Optimum Cutting Temperature (OCT) compound and immediately frozen in liquid nitrogen for immunofluorescence analysis. It is worthy of note that the number of wounds used for most of the aforementioned studies were in the range of 48 to 60 wounds per treatment. Some parameters related to sex hormones and oxidative stress were measured in serum or wound fluids, which were collected on day 7 post-wounding from subcutaneously inserted stainless steel mesh chambers.

wound macrophage markers = details: diabetic wounds
NF-κB = NF-κB p65-DNA binding activity in wounds; assay type: in vivo, rat; details: wounds from treated diabetic rats; FIG. 5G
Method: To assess protein expression and NF-κB activation, frozen liquid nitrogen powdered wounded tissues or serum starved RDFs/HDFs were homogenized on ice in a RIPA buffer (50 mM Tris pH 7.4, 150 mM NaCl, 10 mM EDTA, 2 mM sodium vanadate, 150 mM sodium fluoride, 0.5% sodium deoxycholate, 1% Triton X-100, and a cocktail of protease inhibitors) for total cellular proteins, or with a hypotonic buffer A (10 mM HEPES pH 7.9, 10 mM KCl, 2 mM MgCl2, 0.1 mM EDTA, 1.0 mM DTT, 0.5 mM PMSF, 20 mM NaF, 1 mM sodium orthovanadate and a cocktail of protease inhibitors) for the nuclear protein extraction. […] Similarly, the hypotonic buffer-dependent homogenates (500 μl) were incubated on ice for 20 minutes, after which 50 μl of 10% NP-40 was added. The mixture was vortexed and centrifuged (5000×g, 1 min, 4° C.). […]
A quantitative analysis of p65-DNA binding activity was performed on the nuclear protein extracts using the ELISA-based TransAM NFκB Transcription Factor Assay Kit (Active Motif) according to the manufacturer's instruction. […] The activated transcription factor, specifically bound to the immobilized oligonucleotide, was detected using an antibody directed against NF-κB and a secondary antibody conjugated to horseradish peroxidase. The developing solution was then added, and the OD (450-665 mm) was measured using a microplate reader (Thermo Scientific). Results were expressed as % of control.

[3] = system: rheumatoid arthritis in rat models; details: subcutaneous administration, dose of 0.3 mg/kg; cited from earlier work
GK diabetic rats [4] = test: Insulin sensitivity clamp (Rapid Insulin Sensitivity Test) in female diabetic rats
GK diabetic rats [5] = test: Full-thickness excisional wound healing in GK diabetic rats (closure, re-epithelialization, ECM deposition); details: diabetic wounds
[6] = GK diabetic rats treated, plasma, mean±SEM
[7] = GK diabetic rats treated, wound fluid day 7 post-wounding, mean±SEM
[8] = female GK diabetic rats treated, mean±SEM

## C[C@]12CC[C@@H]3c4ccc(O)cc4CC[C@H]3[C@@H]1CC[C@@H]2O [E2, β-estradiol]
[1]
  TGF-βRII expression: augmented
  phospho-Smad2: augmented
  Smad7 levels: decreased
[2]; GK diabetic rats treated, mean±SEM
  Weight (g) Uterus: 0.41 ± 0.04 g
[2]; [6]
  Plasma F2 Isoprostanes: 47 ± 6.6 pg/mL
  Plasma Testosterone: 849 ± 85 pg/mL
[2]; [7]
  Wound fluid F2 Isoprostanes: 43 ± 4.4 pg/mL
  Wound fluid Testosterone: 456 ± 47 pg/mL
[2]; GK diabetic rats, Table 1
  diabetes-related abnormalities (testosterone, F2 isoprostanes, uterine weights, plasma and wound E2 levels): Most of the aforementioned abnormalities were normalized
Wound macrophage markers; FIG. 5C-E
  up-regulation in M1 macrophage-derived markers, together with the resolution of inflammation within the diabetic wound microenvironment: normalized
Wound macrophage markers; FIGS. 2F, 2G, 3A, 3B, 5F
  diabetes-related decrease in the expression of wound M2 macrophage phenotype: partial reversal

## TNFR1: soluble pegylated long-lasting form of TNF-RI (Amgen) that neutralizes TNF-α action
NF-κB
  NF-κB activity: significant decrease
[3]
  inflammatory reaction of rheumatoid arthritis: appears to limit the inflammatory reaction
[1]
  TGF-βRII expression: augmented
  phospho-Smad2: augmented
  Smad7 levels: decreased
[2]; [6]
  Plasma F2 Isoprostanes: 69 ± 8.4 pg/mL
[2]; [7]
  Wound fluid F2 Isoprostanes: 59 ± 5.2 pg/mL
GK diabetic rats [4]; diabetic animals, Table 2
  effect on carbohydrate tolerance: favorable effect
  hyperinsulinemic state: partially ameliorated
  target tissue sensitivity to insulin (increase in glucose infusion rate): significantly improved
GK diabetic rats [4]; female GK diabetic rats treated, clamp, mean±SEM
  GIR: Glucose infusion rate: 18.53 ± 1.49 mg/min/kg body wt
GK diabetic rats [4]; [8]
  FBG: Fasting blood glucose: 125 ± 17 mg/dL
  FPI: Fasting plasma insulin: 0.68 ± 0.05 ng/mL
  PCPI: Post clamp plasma insulin: 4.61 ± 0.4 ng/mL
Wound macrophage markers
  pro-resolving/M2 polarizing effect: recapitulated
GK diabetic rats [5]; FIG. 2A-D
  deposition of ECM: significant improvement
GK diabetic rats [5]; FIGS. 1A and B
  healing process, at the macroscopic and microscopic levels: significant improvement
